# Laboratory results as given in patent US20040024178A1, “Bacterial signal peptidase inhibitors and uses thereof” (priority 1999, published 2004).
# T1: Octanoyl-[…]OH
# T1 chain: LTPTAKAASKIDD
# T2: Decanoyl-[…]OH
# T2 chain: LTPTAKAASKIDD
# B1: S. aureus SpsB signal peptidase (protein)
# chain: MKKELLEWIISIAVAFVILFIVGKFIVTPYTIKGESMDPTLKDGERVAVNIIGYKTGGLEKGNVVVFHANKNDDYVKRVIGVPGDKVEYKNDTLYVNGKKQDEPYLNYNLKHKQGDYITGTFQVKDLPNANPKSNVIPKGKYLVLGDNREVSKDSRAFGLIDEDQIVGKVSFRFWPFSEFKHNFNPENTKN
# What was measured:
# [1] = target: E. coli leader peptidase (Escherichia coli, UniProt P00803); conditions: cited from earlier work
# Chain of E. coli leader peptidase (P00803 whole entry): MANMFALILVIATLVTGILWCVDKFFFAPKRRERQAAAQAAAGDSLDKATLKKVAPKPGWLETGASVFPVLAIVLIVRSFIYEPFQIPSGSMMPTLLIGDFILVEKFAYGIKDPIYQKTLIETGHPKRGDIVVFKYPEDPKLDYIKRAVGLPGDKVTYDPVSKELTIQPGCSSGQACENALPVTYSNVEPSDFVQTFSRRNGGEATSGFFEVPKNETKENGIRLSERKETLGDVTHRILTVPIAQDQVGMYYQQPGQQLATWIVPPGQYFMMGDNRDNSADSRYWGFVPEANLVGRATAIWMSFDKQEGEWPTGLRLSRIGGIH
# [2] = target: T1, Octanoyl-[…]OH
# [3] = target: T2, Decanoyl-[…]OH
molecule,measurement,setting,value
ASVAVATLVPMLSFAAEGDDPAK,rate of cleavage,"[1]; versus parent M13 procoat protein, Dierstein and Wickner",comparable to that of the parent
ALAKI,rate of turnover,[1]; Dev et al,very slow
B1,processing after 30 minutes (HPLC/MS cleavage assay),[2],>80% processing after 30 minutes
same,processing after 30 minutes (HPLC/MS cleavage assay),[3],>80% processing after 30 minutes
